Measured values as given in patent US20040242591A1, “Oxazolidinone derivatives as pontential antimicrobials” (priority 2001, published 2004).

Tests used:
[1] = system: S.aureus ATCC 25923; assay: MIC by agar incorporation method, S.aureus 25923; format: cell-based, Staphylococus aureus; set-up: unit not given here; conditions: Mueller Hinton agar, 10^4 CFU/spot, 18 hours
[2] = system: MRSA 15187; assay: MIC by agar incorporation method, MRSA 15187; format: cell-based, Methicillin Resistant Staphylococcus aureus; set-up: unit not given here; conditions: Mueller Hinton agar, 10^4 CFU/spot, 24 hours
Text: 2) MRSA 15187—Methicillin Resistant Staphylococcus aureus

[3] = system: MRSA 562; assay: MIC by agar incorporation method, MRSA 562; format: cell-based, Methicillin Resistant Staphylococcus aureus; set-up: unit not given here; conditions: Mueller Hinton agar, 10^4 CFU/spot, 24 hours
[4] = system: MRSA 33; assay: MIC by agar incorporation method, MRSA 33; format: cell-based, Methicillin Resistant Staphylococcus aureus; set-up: unit not given here; conditions: Mueller Hinton agar, 10^4 CFU/spot, 24 hours
[5] = system: Ent. faecalis ATCC 29212; assay: MIC by agar incorporation method, E.faecalis 29212; format: cell-based, Enterococcus faecalis; set-up: unit not given here; conditions: Mueller Hinton agar, 10^4 CFU/spot, 18 hours
Text: 3) Ent. faecalis ATCC 29212—Enterococcus faecalis ATCC 29212

[6] = system: VRE 6A; assay: MIC by agar incorporation method, VRE 6A; format: cell-based, Enterococcus faecium; set-up: unit not given here; conditions: Mueller Hinton agar, 10^4 CFU/spot, 18 hours
Text: 4) Ent. faecium […]—Enterococcus faecium 6A Van®, Cipro®

[7] = system: Strep.pyog. ATCC 19615; assay: MIC by agar incorporation method, S.pyogenes 19615; format: cell-based, Streptococcus pyogenes; set-up: unit not given here; conditions: Mueller Hinton agar, 10^4 CFU/spot, 18 hours
Text: 6) Strep.pyog. ATCC 19615—Streptococcus pyogenes

[8] = system: Strep. pne. ATCC 6303; assay: MIC by agar incorporation method, S. pneum 6303; format: cell-based, Streptococcus pneumoniae; conditions: Mueller Hinton agar, 10^4 CFU/spot, 18 hours
Text: 5) Strep. pne. ATCC 6303—Streptococcus pneumoniae ATCC 6303

[9] = system: S. pneum AB 34; assay: MIC by agar incorporation method, S. pneum AB 34; format: cell-based, Streptococcus pneumoniae; set-up: unit not given here; conditions: Mueller Hinton agar, 10^4 CFU/spot, 18 hours

| SMILES | In Vitro (MIC) S.aureus 25923 [1] | In Vitro (MIC) MRSA 15187 [2] | In Vitro (MIC) MRSA 562 [3] | In Vitro (MIC) MRSA 33 [4] | In Vitro (MIC) E.faecalis 29212 [5] | In Vitro (MIC) VRE 6A [6] | In Vitro (MIC) S.pyogenes 19615 [7] | In Vitro (MIC) S. pneum 6303 [8] [µg/mL] | In Vitro (MIC) S. pneum AB 34 [9] |
| --- | --- | --- | --- | --- | --- | --- | --- | --- | --- |
| CC(=O)NC[C@H]1CN(c2ccc(N3CCN(C(=O)c4ccc(-c5ccc(Cl)cc5[N+](=O)[O-])o4)CC3)c(F)c2)C(=O)O1 [Compound No. 35] | 1 | 1 | 1 | 1 | 0.5 | 1 | 1 | 1 | 1 |
| CC(=O)NC[C@H]1CN(c2ccc(N3CCN(C(=O)c4ccc([N+](=O)[O-])o4)CC3C)c(F)c2)C(=O)O1 (stereo partly drawn) [Compound No. 59, (S)-N-[[3-[3-Fluoro-4-[N-1-[2-methyl-4-{2furoyl-(5-nitro)}]-piperazinyl]phenyl]-2-oxo-5-oxazolidinyl]methyl]acetamide] | 2 | 1 | 1 | 1 | 1 | 2 | 8 | 8 | 8 |
| CC(=O)NC[C@H]1CN(c2ccc(N3CCN(Cc4ccoc4[N+](=O)[O-])CC3)c(F)c2)C(=O)O1 [Compound No. 18, (S)-N-[[3-[3-Fluoro-4-[N-1[4-{3-furyl(2-nitro)methyl}]piperazinyl]phenyl]-2-oxo-5-oxazolidinyl]methyl]acetamide] | 8 | 4 | 4 | 4 | 4 | 4 | 1 | 1 | 2 |
| CC(=O)NC[C@H]1CN(c2ccc(N3CCC(N(C)C(=O)c4ccc([N+](=O)[O-])o4)C(C)C3)c(F)c2)C(=O)O1 (stereo partly drawn) [Compound No. 74, (S)-N-[[3-[3-Fluoro-4-[[3-methyl-4-{N-methyl-2-furoyl-(5-nitro)}]-aminopiperidine-1-y]phenyl]-2-oxo-5-oxazolidinyl]methyl]acetamide] | <0.5 | <0.5 | <0.5 | 1 | 1 | 1 | 8 | 8 | 8 |
| CC(=O)NC[C@H]1CN(c2ccc(N3CCN(C(=O)c4cc([N+](=O)[O-])[nH]n4)CC3)c(F)c2)C(=O)O1 [Compound No. 31] | >8 | >8 | >8 | >8 | 4 | 4 | 1 | 1 | 1 |
| CC(=O)NC[C@H]1CN(c2ccc(N3CCC(CN(C)Cc4ccc([N+](=O)[O-])o4)CC3)c(F)c2)C(=O)O1 [Compound No. 95] | 1 | 1 | 0.5 | 1 | <0.25 | 0.5 | – | – | – |
| CC(=O)NC[C@H]1CN(c2ccc(N3CCC(NCc4ccc([N+](=O)[O-])o4)CC3)c(F)c2)C(=O)O1 [Compound No. 86, (S)-N-[[3-[3-Fluoro-4-[4-{N-2-furyl-(5-nitro)methyl}-aminopiperidine-1-yl]phenyl]-2-oxo-5-oxazolidinyl]methyl]acetamide] | 1 | 1 | 1 | 1 | 0.5 | 0.5 | <0.25 | 2 | 2 |
| CC(=O)NC[C@H]1CN(c2ccc(N3CCN(C(=O)c4ccc([N+](=O)[O-])o4)C(C)C3)c(F)c2)C(=O)O1 (stereo partly drawn) [Compound No. 69, (S)-N-[[3-[3-Fluoro-4-[N-1-[3-methyl-4-{2-furoyl-(5-nitro)}]-piperazinyl]phenyl]-2-oxo-5-oxazolidinyl]methyl]acetamide] | 1 | 1 | 0.5 | 1 | 0.5 | 0.5 | 2 | 8 | 8 |
| CC(=O)NC[C@H]1CN(c2ccc(N3CCN(C(=O)c4ccc(NC(C)=O)s4)CC3)c(F)c2)C(=O)O1 [Compound No. 29, (S)-N-[[3-[3-Fluoro-1-[N-1-[4-{2-thiophenoyl-(5-acetamido)}]piperazinyl]phenyl]-2-oxo-5-oxazolidinyl]methyl]acetamide] | 8 | 4 | 4 | 4 | 4 | 4 | 0.5 | 0.5 | 1 |
| CC(=O)NC[C@H]1CN(c2ccc(N3CCC(N(C)Cc4ccc([N+](=O)[O-])s4)C3)c(F)c2)C(=O)O1 (stereo partly drawn) [Compound No. 90, (S)-N-[[3-[3-Fluoro-4-[N-1,3-[N-methyl[N-{2-thiophenyl(5-nitro)methyl}]aminopyrodinyl]phenyl]]-2-oxo-5-oxazolidinyl]methyl]acetamide] | 4 | 2 | 2 | 4 | 4 | 4 | 2 | 4 | 4 |
| CC(=O)NC[C@H]1CN(c2ccc(N3CCN(Cc4oc(C=O)cc4C)CC3)c(F)c2)C(=O)O1 [Compound No. 71] | 4 | 2 | 2 | 4 | >8 | >8 | >8 | >8 | >8 |
| CC(=O)NC[C@H]1CN(c2ccc(N3CCN(C(=O)C=Cc4ccc([N+](=O)[O-])s4)CC3)c(F)c2)C(=O)O1 [Compound No. 40, (S)-N-[[3-[3-Fluoro-4-[N-1-[4-{2-thiophenoyl-(5-nitro)acrylic}]piperazinyl]phenyl]-2-oxo-5-oxazolidinyl]methyl]-acetamide] | 0.5 | 0.25 | 1 | 0.5 | 1 | 0.5 | 0.5 | 1 | 1 |
| COc1ccc(CN2CCN(c3ccc(N4C[C@H](CNC(C)=O)OC4=O)cc3F)CC2)o1 [Compound No. 15, (S)-N-[[3-[3-Fluoro-4-[N-1-[4-{2-furyl-(5-methoxy)methyl}]piperazinyl]phenyl]-2-oxo-5-oxazolidinyl]methyl]acetamide] | 4 | 4 | 4 | 4 | 4 | 4 | 2 | 2 | 2 |
| CC(=O)NC[C@H]1CN(c2ccc(N3CCC(N(C)C(=O)c4ccc([N+](=O)[O-])o4)C3)c(F)c2)C(=O)O1 (stereo partly drawn) [Compound No. 92] | 1 | 0.5 | <0.25 | 0.5 | <0.25 | <0.25 | 1 | 1 | 1 |
| CC(=O)NC[C@H]1CN(c2ccc(N3CCN(Cc4cc(Br)c([N+](=O)[O-])o4)CC3)c(F)c2)C(=O)O1 [Compound No. 25, (S)-N-[[3-[3-Fluoro-4[N-1-[4-{2-Furyl-4-bromo-(nitro)methyl}]piperazinyl]-phenyl]-2-oxo-5-oxazolidinyl]methyl]acetamide] | 2 | 1 | 2 | 2 | 2 | 2 | 0.5 | 2 | 2 |
| O=C(CCl)NC[C@H]1CN(c2ccc(N3CCN(Cc4cc(Br)c([N+](=O)[O-])s4)CC3)c(F)c2)C(=O)O1 [Compound No. 48] | 4 | 4 | 4 | 4 | 2 | 2 | 16 | 16 | 16 |
